Measurements from patent US20040110777A1, “Quinazolinones and pyridinylpyrimidinones for controlling invertebrate pests” (priority 2003, published 2004).

Q: Which melting point does the source give for Cc1nc(C(F)(F)F)ccc1-c1nc2c(C)cccc2c(=O)n1C(C)C [Compound 5, 8-methyl-3-(1-methylethyl)-2-[2-methyl-6-(trifluoromethyl)-3-pyridinyl]-4(3H)-quinazolinone] here?
A: Its melting point is 132 to 135 °C.
